Results reported in US5463073A, “Thienoimidazole derivatives, their production and use” (Takeda Chemical Industries, Ltd., priority 1990, dated 1995).

Assays:
[1] = target: T1, angiotensin II (A-II) receptor (Bos taurus, UniProt P25104); experiment: Inhibition of binding of angiotensin II to angiotensin II receptor (radioreceptor assay, 125I-A-II, bovine adrenal cortex membrane fraction); details: room temperature, 1 h; for inhibition at 1 µM: 10^-6 M; for inhibition at 0.1 µM: 10^-7 M
T1 construct: membrane fraction was prepared from bovine adrenal cortex; from tissue; host or cells: bovine adrenal cortex membrane fraction
T1 sequence (P25104 1-359): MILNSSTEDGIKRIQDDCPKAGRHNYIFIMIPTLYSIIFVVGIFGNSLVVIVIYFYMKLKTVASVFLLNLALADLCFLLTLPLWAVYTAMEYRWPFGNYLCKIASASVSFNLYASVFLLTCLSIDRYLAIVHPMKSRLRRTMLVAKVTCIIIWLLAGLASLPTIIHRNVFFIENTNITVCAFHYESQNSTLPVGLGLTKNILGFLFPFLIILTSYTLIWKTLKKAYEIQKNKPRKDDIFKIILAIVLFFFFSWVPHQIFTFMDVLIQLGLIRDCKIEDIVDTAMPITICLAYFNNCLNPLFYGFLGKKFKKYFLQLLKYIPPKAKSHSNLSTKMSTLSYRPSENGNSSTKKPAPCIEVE
Description: Inhibitory Effect of Binding of Angiotensin-II to Angiotensin Receptor
An experiment of inhibition on the binding of angiotensin II (A-II) receptor was conducted by modifying the method of Douglas et al. [Endocrinology, 102, 685-696 (1978)]. An A-II receptor membrane fraction was prepared from bovine adrenal cortex.
The compound of the present invention (10^-6 M or 10^-7 M) and^125 I-angiotensin II (^125 I-A-II) (1.85 kBq/50 μl) were added to the receptor membrane fraction, and the mixture was incubated at room temperature for one hour. The receptor-bound and free ^125 I-A-II were separated through a filter (Whatman GF/B filter), and the radioactivity of ^125 I-A-II bound to the receptor was measured.

[2] = system: A-II-induced pressor action; experiment: Inhibitory effect on pressor action of angiotensin II in rats (p.o.); type: in vivo, Jcl: SD rats; details: Rattus norvegicus, po; 1 mg/kg p.o.; male SD rats; A-II 100 ng/kg i.v.; read-out: Pressor Response (percent inhibition of A-II-induced pressor action)
From the text: Inhibitory Effect of the Compound of the Present Invention on Pressor Action of Angiotensin
Jcl: SD rats (9 week old, male) were employed. On the day previous to that of the experiment, these animals were applied with cannulation into the femoral artery and vein under anesthesia with pentobarbital Na. The animals were fasted but allowed to access freely to drinking water until the experiment was started. Just on the day of conducting the experiment, the artery cannula was connected with a blood-pressure transducer, and the average blood pressure was recorded by means of polygraph. Before administration of the drug, the pressor action due to intravenous administration of angiotensin II (A-II) (100 ng/kg) as the control was measured. The drugs were orally administered, then, at each point of the measurement, A-II was administered intravenously, and the pressor action was similarly measured. By comparing the pressor action before and after administration of the drug, the percent inhibition by the drug on A-II-induced pressor action was evaluated.

SMILES	inhibition at 1 µM [1]	inhibition at 0.1 µM [1]	inhibition in vivo at 1 mg/kg [2]
CSc1nc2c(C)sc(C(=O)O)c2n1Cc1ccc(-c2ccccc2-c2nn[nH]n2)cc1 [Working Example 15]	50%	14%	≥ 70%
Cc1sc(C(=O)O)c2c1nc(SC(C)C)n2Cc1ccc(-c2ccccc2-c2nnn[nH]2)cc1 [Working Example 17, 2-Isopropylthio-4-methyl-1-[[2'-(1H-tetrazol-5-yl]-biphenyl-4-yl]methyl]thieno[3,4-d]imidazole-6-carboxylic acid]	64%	26%	≥ 70%
CCCCSc1nc2c(C)sc(C(=O)O)c2n1Cc1ccc(-c2ccccc2-c2nn[nH]n2)cc1 [Working Example 18, 2-Butylthio-4-methyl-1-[[2',(1H-tetrazol-5-yl)biphenyl-4-yl]methyl]thieno[3,4-d]imidazole-6-carboxylic acid]	66%	33%	30 to 50%
CCSc1nc2csc(C(=O)O)c2n1Cc1ccc(-c2ccccc2-c2nnn[nH]2)cc1 [Working Example 22, 2-Ethylthio-1-[[2'-(1H-tetrazol-5-yl)biphenyl-4-yl]methyl]thieno[3,4-d]imidazole-6-carboxylic acid]	84%	45%	50 to 70%
CCSc1nc2c(C)sc(C(=O)OC)c2n1Cc1ccc(-c2ccccc2-c2nn[nH]n2)cc1 [compound 1]	91%	68%	30 to 50%
CCSc1nc2c(C)sc(C(=O)O)c2n1Cc1ccc(-c2ccccc2-c2nn[nH]n2)cc1 [compound 2]	64%	18%	≥ 70%
CCSc1nc2c(C)sc(C(=O)OCOC(=O)C(C)(C)C)c2n1Cc1ccc(-c2ccccc2-c2nn[nH]n2)cc1 [compound 5]	89%	59%	≥ 70%
CCSc1nc2c(C)sc(C(=O)OC(C)OC(=O)OC3CCCCC3)c2n1Cc1ccc(-c2ccccc2-c2nn[nH]n2)cc1 (stereo not drawn) [compound 6]	84%	46%	≥ 70%
COC(=O)c1sc(C)c2nc(SC)n(Cc3ccc(-c4ccccc4-c4nn[nH]n4)cc3)c12 [compound 7]	77%	55%	30 to 50%
COc1nc2c(C)sc(C(=O)O)c2n1Cc1ccc(-c2ccccc2-c2nn[nH]n2)cc1 [compound 28]	65%	19%	≥ 70%
CCOc1nc2c(C)sc(C(=O)O)c2n1Cc1ccc(-c2ccccc2-c2nn[nH]n2)cc1 [compound 29]	67%	39%	
CCCOc1nc2c(C)sc(C(=O)O)c2n1Cc1ccc(-c2ccccc2-c2nn[nH]n2)cc1 [compound 30]	72%	33%	
CCNc1nc2c(C)sc(C(=O)O)c2n1Cc1ccc(-c2ccccc2-c2nn[nH]n2)cc1 [compound 31]	75%	26%	
COc1nc2c(C)sc(C(=O)OCOC(C)=O)c2n1Cc1ccc(-c2ccccc2-c2nn[nH]n2)cc1 [compound 36]	92%	73%	≥ 70%
